{
  "source": "patent US6548553B2",
  "about": "“Styryl sulfone anticancer agents” (Temple University-of the Commonwealth System of Higher …, priority 1997, dated 2003)",
  "key": {"[1]": {"test_system": "U87", "experiment": "GI50 growth inhibition, trypan blue cell count", "format": "cell-based, human", "settings": "Homo sapiens, U-87 MG; glioblastoma; 96 hours after addition", "description": "(§1) The human carcinoma cell lines listed in Table 5 below were purchased from ATCC and grown in an appropriate growth medium containing 10% fetal bovine serum (FBS) and antibiotics. The cells were plated at a cell density of 1.0×10^5 cells per […] in 6-well dishes. The cells were treated with various concentrations of (E)-fluorostyryl-4-bromobenzylsulfone 24 hours after plating in a total volume of 1 ml of medium using dimethylsulfoxide (DMSO) as a solvent for the compound. Control cells were treated with DMSO alone. The total number of viable cells was determined 96 hours after the addition of the compound by counting the cells in each well using a hemacytometer after trypan blue staining (viable cells exclude the stain). The counts were done in duplicate and the average was graphed in FIG. 8 as a percentage of the non-treated control group."}, "[2]": {"test_system": "H157", "experiment": "GI50 growth inhibition, trypan blue cell count", "format": "cell-based, human", "settings": "Homo sapiens, NCI-H157; lung, non-small cell; 96 hours after addition", "description": "as §1"}, "[3]": {"test_system": "DLD-1", "experiment": "GI50 growth inhibition, trypan blue cell count", "format": "cell-based, human", "settings": "Homo sapiens, DLD-1; cob-rectal; 96 hours after addition", "description": "as §1"}, "[4]": {"test_system": "MIA-PaCa-2", "experiment": "GI50 growth inhibition, trypan blue cell count", "format": "cell-based, human", "settings": "Homo sapiens, MIA PaCa-2; pancreatic; 96 hours after addition", "description": "as §1"}, "[5]": {"target": "T1, ERK-2 (Homo sapiens, UniProt P28482)", "T1 construct": "ERK-2 in 100 mg of cell lysate was immunoprecipitated; endogenous in cells; host or cells: LnCaP, MCF-7 (human) and NIH3T3 (mouse) cells", "T1 sequence (P28482 2-360)": "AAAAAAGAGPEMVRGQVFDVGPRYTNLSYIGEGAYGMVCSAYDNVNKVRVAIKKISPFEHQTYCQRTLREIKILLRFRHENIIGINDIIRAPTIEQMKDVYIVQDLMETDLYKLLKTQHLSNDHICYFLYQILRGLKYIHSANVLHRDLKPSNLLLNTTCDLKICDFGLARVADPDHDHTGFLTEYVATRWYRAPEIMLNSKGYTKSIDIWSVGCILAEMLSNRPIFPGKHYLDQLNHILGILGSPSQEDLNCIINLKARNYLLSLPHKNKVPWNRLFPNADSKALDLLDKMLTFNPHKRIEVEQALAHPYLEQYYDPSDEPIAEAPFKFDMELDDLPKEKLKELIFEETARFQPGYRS", "experiment": "Immune complex ERK-2 kinase assay with MBP substrate, treated cells", "format": "cell-based", "set-up": "dose or concentration left out as unconfirmed", "settings": "prostate tumor cells", "description": "To examine the effects of FRI-20 on the MAPK pathway, NIH3T3, LnCaP and MCF-7 cells were incubated with FRI-20 at a concentration […] for 48 hours. Following incubation of cells in the presence and absence of FRI-20, the cells were lysed using ERK lysis buffer containing 20 mM HEPES (pH 7.4), 50 mM β-glycerophosphate, 0.5% Triton X-100, 2 mM MgCl2, 1 mM EGTA, 1 mM dithiothreitol, 2 μg/ml leupeptin, 2 μg/ml aprotinin, 100 μM phenylmethylsulfonyl fluoride, and 1 mM benzamidine. ERK-2 in […] of cell lysate was immunoprecipitated by incubating lysate protein with […] of ERK-2 polyclonal antibody (antibody sc-154 to ERK2 is from Santa Cruz Biotechnology, Inc.) for one hour followed by an additional incubation of 20 μl of protein A-Sepharose (Pharmacia) for one hour. The immune complex-bound protein A-Sepharose beads were washed twice with lysis buffer and twice with\nERK/MAPK buffer containing 20 mM HEPES (pH 7.4), 50 mM β-glycerophosphate, 10 mM MgCl2, 1 mM EGTA, 1 mM dithiothreitol, and […] Na3VO4.\nThe immunoprecipitates were then tested for MAP kinase activity by an in vitro assay which utilizes myelin basic proteins (MBP) as a substrate for ERK-2 in the presence of [γ-^32P] ATP. Accordingly, the beads were resuspended in 40 μl of MAPK buffer containing 100 μM [γ-^32P] […]"}, "[6]": {"test_system": "LnCaP, BT-20 and MCF-7 cells", "experiment": "Trypan blue exclusion viability/proliferation assay (dose and time course)", "format": "cell-based", "description": "(§2) The effect of the styryl sulfones on the growth of normal and tumor cells of breast and prostate was examine utilizing four cell lines, NIH3T3, MCF-7, BT-20 and LnCap. NIH/3T3 cells represent normal fibroblasts while LnCap is an androgen-dependent prostate tumor cell line. MCF-7 is an estrogen-responsive breast tumor cell line, while BT-20 is an estrogen-unresponsive breast tumor cell line. MCF-7 and BT-20 were grown in Dulbecco's modified Eagle's medium (DMEM) containing 10% fetal bovine serum supplemented with penicillin and streptomycin. LnCaP were cultured in RPMI with 10% fetal bovine serum containing penicillin and streptomycin. NIH3T3 cells were grown in DMEM containing 10% calf serum supplemented with penicillin and streptomycin. All cell cultures were maintained at 37° C. in a humidified atmosphere of 5% CO2.\n(§3) The compounds identified in Tables 2, 3 and 4 inhibited cell growth and induced cell death, to varying degrees. The tables list the percent viable LnCap and MCF-7 cells treated with 5.0 μM compound.\nNIH3T3, MCF-7, BT-20 and LnCaP cells were treated with FRI-20 dissolved in DMSO to concentrations of 250 nM, 500 nM, 1 μM, 2.5 μM and 5 μM and examined for their proliferation and viability after 48 hours (FIG. 2A). The percentage of living cells was determined by Trypan blue exclusion. The control cells were treated with DMSO to determine the effect of solvent on cells. […] Under these conditions, only 2-3% of NIH3T3 cells were non-viable at both the concentrations. […] After 48 hours incubation, 60-75% of the LnCaP, BT-20 and MCF-7 cells were dead at […] FRI-20 concentration, whereas more than 90% of NIH3T3 cells were viable (FIG. 2A).\nNIH/3T3, MCF-7, BT-20 and LnCap were treated with FRI-20 at 2.5 μM and the number of viable cells was determined at 12, 24, 48 and 72 hours by Trypan blue exclusion."}, "[7]": {"test_system": "LnCaP and MCF-7 cells", "experiment": "Trypan blue exclusion viability assay, Tables 2-4", "format": "cell-based", "settings": "5.0 μM compound, 48 hours, read-out: % viable LnCaP and MCF-7 cells", "description": "as §2\nas §3, with “Cells were treated with test compound at 2.5 μM or 5.0 μM concentration and cell viability was determined after 48 hours by the Trypan blue exclusion method. The compounds” for “The compounds”"}},
  "data": [
    {"smiles": "O=S(=O)(/C=C/c1ccc(F)cc1)Cc1ccc(Cl)cc1", "note": "[Example 11, E-4-fluorostyryl 4-chlorobenzyl Sulfone]", "values": [
      {"measurement": "GI50", "setting": "[1]", "value": 2000, "unit": "nM"},
      {"measurement": "GI50", "setting": "[2]", "value": 1500, "unit": "nM"},
      {"measurement": "GI50", "setting": "[3]", "value": 1000, "unit": "nM"},
      {"measurement": "GI50", "setting": "[4]", "value": 500, "unit": "nM"},
      {"measurement": "reduction of phosphorylation status of MBP compared to mock-treated cells", "setting": "[5]", "value": "more than 80%"},
      {"measurement": "cell death", "setting": "[6]; 250 nM, 48 hours", "value": "about 10%"},
      {"measurement": "inhibition at 0.25 µM", "setting": "[6]; 250 nM, 48 hours, read-out: inhibition in cell division compared to untreated cells", "value": "15 to 20", "unit": "%"},
      {"measurement": "cell death", "setting": "[6]; 500 nM, 48 hours", "value": "25-30%"},
      {"measurement": "inhibition at 0.5 µM", "setting": "[6]; 500 nM, 48 hours, read-out: inhibition in cell proliferation", "value": "30 to 50", "unit": "%"},
      {"measurement": "cell growth inhibition with loss of cell viability", "setting": "[6]; 1 μM, 48 hours", "value": "greatly inhibited"},
      {"measurement": "dead cells", "setting": "[6]; 2.5 µM, 48 hours incubation", "value": "60-75%"},
      {"measurement": "dead cells", "setting": "[6]; 2.5 μM, 72 hours of treatment", "value": "more than 95%"},
      {"measurement": "cell death", "setting": "[6]; 5 μM, 48 hours", "value": "~90", "unit": "%"},
      {"measurement": "viability at 5 µM", "setting": "[7]", "value": 6, "unit": "%"}
    ]}
  ]
}
